≈ marks a conversion by molar mass, not a printed value.
Key:
Msm ΔEM-pMbtAtb = assay: microbe, parasite or virus in culture; format: cell-based, Mycobacterium smegmatis; settings: for MIC potency compared to 1 (decrease): Fe-limiting media
MbtAtb (H10MbtA^opt) [1] = target: T1, MbtAtb (H10MbtA^opt) (Mycobacterium tuberculosis, UniProt P71716); format: biochemical
H10MbtA^opt = H10MbtA^opt (Mycobacterium tuberculosis, UniProt P71716); format: biochemical
PPT-PNP coupling system = format: biochemical
[2] = mouse; cited from earlier work
mammalian cells = settings: cited from earlier work
Msm ΔM = format: cell-based, Mycobacterium smegmatis; settings: GASTD+Fe medium
MbtAtb (H10MbtA^opt) [3] = target: T1, MbtAtb (H10MbtA^opt); format: biochemical; settings: Kiapp increased linearly with [S]
Msm ΔE = assay: microbe, parasite or virus in culture; format: cell-based, Mycobacterium smegmatis; settings: GASTD medium (Fe-limiting)
Msm WT = assay: Growth inhibition assay; format: cell-based, Mycobacterium smegmatis; settings: GASTD+Fe medium
Mtb [4] = settings: cited from earlier work
Mtb [5] = settings: monotherapy at 5.6 or 16.7 mg/kg; cited from earlier work
MbtAtb = settings: cited from earlier work; for Ki: read-out: Kiapp
MbtAtb (H10MbtA^opt) [6] = target: T1, MbtAtb (H10MbtA^opt); format: biochemical; settings: read-out: IC50 (H10MbtA^opt-dependent signal, salicyl-AMS fragments)

T1 sequence (P71716 whole entry, looked up): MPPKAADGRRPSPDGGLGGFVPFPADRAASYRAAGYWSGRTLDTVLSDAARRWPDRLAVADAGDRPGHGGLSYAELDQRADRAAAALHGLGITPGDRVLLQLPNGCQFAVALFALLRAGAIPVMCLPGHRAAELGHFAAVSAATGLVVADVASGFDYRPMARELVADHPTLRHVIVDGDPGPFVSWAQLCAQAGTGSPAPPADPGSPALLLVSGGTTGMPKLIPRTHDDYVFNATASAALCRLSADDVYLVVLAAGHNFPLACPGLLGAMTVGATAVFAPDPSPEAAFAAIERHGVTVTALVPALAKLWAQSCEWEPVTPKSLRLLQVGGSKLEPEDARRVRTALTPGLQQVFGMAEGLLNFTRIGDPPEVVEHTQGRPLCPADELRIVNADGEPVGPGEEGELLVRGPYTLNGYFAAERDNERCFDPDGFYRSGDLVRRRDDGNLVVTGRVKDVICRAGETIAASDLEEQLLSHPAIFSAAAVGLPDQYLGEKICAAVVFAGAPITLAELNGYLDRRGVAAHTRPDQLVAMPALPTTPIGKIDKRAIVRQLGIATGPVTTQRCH
Chain of H10MbtA^opt (P71716 whole entry, looked up): as above

With Nc1nc(-c2ccccc2)nc2c1ncn2C1OC(COS(=O)(=O)NC(=O)c2ccccc2O)C(O)C1O (stereo not shown) [3a, salicyl-2-Ph-AMS] the “MIC potency compared to 1 (decrease)” value (Msm ΔEM-pMbtAtb) was “no statistically significant difference”.
In the case of Nc1nc(Nc2ccccc2)nc2c1ncn2C1OC(COS(=O)(=O)NC(=O)c2ccccc2O)C(O)C1O (stereo not shown) [3b, salicyl-2-NHPh-AMS], the “MIC potency compared to 1 (decrease)” value (Msm ΔEM-pMbtAtb) is reported as “no statistically significant difference”.
For Nc1ncnc2c1ncn2[C@@H]1O[C@H](CNS(=O)(=O)NC(=O)c2ccccc2O)[C@@H](O)[C@H]1O [4a, salicyl-AMSN], the “MIC potency compared to 1 (decrease)” value (Msm ΔEM-pMbtAtb) was “no statistically significant difference”.
With CNc1ncnc2c1ncn2[C@@H]1O[C@H](COS(=O)(=O)NC(=O)c2ccccc2O)[C@@H](O)[C@H]1O [5a, salicyl-6-N-Me-AMS] the “Kiapp higher than that of salicyl-AMS (1)” value (from here on “Kiapp higher than that”) (MbtAtb (H10MbtA^opt) [1]) was “≈ 5.5 fold”, the “decrease in tR compared with salicyl-AMS (1)” value (“decrease in tR” for short) (MbtAtb (H10MbtA^opt) [1]) was “≈ 0.5 fold” and the “increase in koff compared with salicyl-AMS (1)” value (shortened to “increase in koff”) (MbtAtb (H10MbtA^opt) [1]) was “≈ 2 fold”. The “konapp lower than that of salicyl-AMS (1)” value (from here on “konapp lower than that”) (MbtAtb (H10MbtA^opt) [1]) was “≈ 2.5 fold” and the “MIC potency compared to 1 (decrease)” value (Msm ΔEM-pMbtAtb) was “no statistically significant difference”.
With O=C(NS(=O)(=O)OC[C@H]1O[C@@H](n2cnc3c(NC4CC4)ncnc32)[C@H](O)[C@@H]1O)c1ccccc1O [5b, salicyl-6-N-c-Pr-AMS] the “Kiapp higher than that” value (MbtAtb (H10MbtA^opt) [1]) was “≈ 5.5 fold”, the “decrease in tR” value (MbtAtb (H10MbtA^opt) [1]) was “≈ 0.5 fold” and the “increase in koff” value (MbtAtb (H10MbtA^opt) [1]) was “≈ 2 fold”. The “konapp lower than that” value (MbtAtb (H10MbtA^opt) [1]) was “≈ 2.5 fold” and the “MIC potency compared to 1 (decrease)” value (Msm ΔEM-pMbtAtb) was 6 fold.
In the case of Nc1ncnc2c1ncn2[C@@H]1O[C@H](COP(=O)(O)OP(=O)(O)OP(=O)(O)O)[C@@H](O)[C@H]1O [ATP], the KmATP (H10MbtA^opt) is reported as 13.0 ± 1.3 µM and the “kcatsal (ATP as the variable substrate)” value (H10MbtA^opt) is reported as 1.16 ± 0.04 min⁻¹.
In the case of Nc1ncnc2c1ncn2[C@@H]1O[C@H](COS(=O)(=O)NC(=O)c2ccccc2O)[C@@H](O)[C@H]1O [compound 1, 5´-O-[N-salicylsulfamoyl]adenosine], the “mechanism of inhibition (kobs vs inhibitor concentration)” value (MbtAtb (H10MbtA^opt) [1]; linear kobs vs [I]) is listed as “static, slow-onset mechanism of inhibition”, the “effect on the PPT-PNP coupling system” value (PPT-PNP coupling system) is listed as “did not affect” and the “doses with in vivo toxicity” value [2] is listed as ≥ 16.7 mg/kg. The “cytotoxicity against mammalian cells” value (mammalian cells) was “not cytotoxic”, the MIC (Msm ΔM) was >1000 µg/mL and the MIC (Msm ΔEM-pMbtAtb; GASTD medium (Fe-limiting), listed as salicyl-AMS) was 0.5 to 1.0 µg/mL. For the same compound, the MIC (Msm ΔEM-pMbtAtb; GASTD+Fe medium (Fe-rich)) was > 1,000 µg/ml, the MIC (Msm ΔEM-pMbtAtb; Mycolicibacterium smegmatis, GASTD medium (Fe-limiting)) was 0.5 to 1 µg/mL (≈ 1.07 to 2.14 µM) and the MIC (Msm ΔEM-pMbtAtb; Mycolicibacterium smegmatis, GASTD+Fe medium (Fe-rich)) was > 1000 µg/mL. The “inhibition mechanism with respect to both MbtAtb substrates” value (MbtAtb (H10MbtA^opt) [3]) was “competitive inhibition mechanism”, the MIC (Msm ΔE) was 0.5 to 1 µg/mL and the MIC (Msm ΔE; Mycolicibacterium smegmatis) was 0.5 to 1 µg/mL (≈ 1.07 to 2.14 µM). The MIC (Msm WT) was >1000 µg/mL, the MIC (Mtb [4]; Fe-limiting medium, comparable inoculum) was 0.1 to 0.5 µg/mL and the “Mtb growth in the mouse lung” value (Mtb [5]) was “significant reduction of Mtb growth in the mouse lung”.
In the case of Nc1ncnc2c1ncn2[C@H]1C[C@H](O)[C@@H](COS(=O)(=O)NC(=O)c2ccccc2O)O1 [compound 2, salicyl-2´-dAMS], the “worsening of the kinetic parameters relative to salicyl-AMS (1)” value (MbtAtb (H10MbtA^opt) [1]) is given as ≤ 2 fold, the “MIC potency compared to 1 (decrease)” value (Msm ΔEM-pMbtAtb) is given as 6 fold and the “decrease in Kiapp relative to salicyl-AMS (1)” value (MbtAtb; ATP-PPi assay) is given as 0.5 fold.
With COc1ncnc2c1ncn2[C@@H]1O[C@H](CNS(=O)(=O)NC(=O)c2ccccc2O)[C@@H](O)[C@H]1O [compound 6, salicyl-6-MeO-AMSN] the “Kiapp higher than that” value (MbtAtb (H10MbtA^opt) [1]) was 10 fold, the “decrease in tR” value (MbtAtb (H10MbtA^opt) [1]) was “≈ 0.5 fold” and the “increase in koff” value (MbtAtb (H10MbtA^opt) [1]) was “≈ 2 fold”. The “konapp lower than that” value (MbtAtb (H10MbtA^opt) [1]) was 6 fold and the “MIC potency compared to 1 (decrease)” value (Msm ΔEM-pMbtAtb) was 6 fold.
In the case of O=C(NS(=O)(=O)O)c1ccccc1O [compound 8, salicyl-sulfamate], the IC50 (MbtAtb (H10MbtA^opt) [6]) is reported as ~1 mM.
For O=C(NS(=O)(=O)OCC1OC(n2cnc3c(=O)[nH]cnc32)C(O)C1O)c1ccccc1O (stereo not shown) [compound 11, salicyl-IMS], the Ki (MbtAtb) is given as 800 nM and the “Mtb MIC” value (Mtb [4]) is given as > 100 µM.
In the case of CN(C)c1ncnc2c1ncn2C1OC(COS(=O)(=O)NC(=O)c2ccccc2O)C(O)C1O (stereo not shown) [compound 12, salicyl-6-N,N-diMe-AMS], the Ki (MbtAtb) is listed as 380 nM and the “Mtb MIC” value (Mtb [4]) is listed as 50 µM.
In the case of O=C(O)c1ccccc1O [salicylic acid], the Kmsal (H10MbtA^opt) is reported as 0.31 ± 0.003 µM.
For salicyl-AMSNMe [4b], the “improvement in Kiapp of 4b versus 4a” value (MbtAtb (H10MbtA^opt) [1]) was 0.5 fold and the “MIC potency compared to 1 (decrease)” value (Msm ΔEM-pMbtAtb) was “indistinguishable”.

Reference: publication PMC6530907 (Biochemistry, 2019)
